What all share (assay): Kinase profiling in a biochemical assay panel (mobility shift assays and ELISA), %-inhibition at 1 μM; selectivity entropy
For test [1], the target named is panel of more than 300 wild-type and mutant kinases (313 kinase panel) (Homo sapiens, UniProt P78368).
In test [2] the target is panel of more than 300 wild-type and mutant kinases (313 kinase panel) (Homo sapiens, UniProt Q9BUB5).
In test [3] the target is T1, panel of more than 300 wild-type and mutant kinases (313 kinase panel) (Homo sapiens, UniProt Q8IWQ3).
T1 sequence (Q8IWQ3 1-736): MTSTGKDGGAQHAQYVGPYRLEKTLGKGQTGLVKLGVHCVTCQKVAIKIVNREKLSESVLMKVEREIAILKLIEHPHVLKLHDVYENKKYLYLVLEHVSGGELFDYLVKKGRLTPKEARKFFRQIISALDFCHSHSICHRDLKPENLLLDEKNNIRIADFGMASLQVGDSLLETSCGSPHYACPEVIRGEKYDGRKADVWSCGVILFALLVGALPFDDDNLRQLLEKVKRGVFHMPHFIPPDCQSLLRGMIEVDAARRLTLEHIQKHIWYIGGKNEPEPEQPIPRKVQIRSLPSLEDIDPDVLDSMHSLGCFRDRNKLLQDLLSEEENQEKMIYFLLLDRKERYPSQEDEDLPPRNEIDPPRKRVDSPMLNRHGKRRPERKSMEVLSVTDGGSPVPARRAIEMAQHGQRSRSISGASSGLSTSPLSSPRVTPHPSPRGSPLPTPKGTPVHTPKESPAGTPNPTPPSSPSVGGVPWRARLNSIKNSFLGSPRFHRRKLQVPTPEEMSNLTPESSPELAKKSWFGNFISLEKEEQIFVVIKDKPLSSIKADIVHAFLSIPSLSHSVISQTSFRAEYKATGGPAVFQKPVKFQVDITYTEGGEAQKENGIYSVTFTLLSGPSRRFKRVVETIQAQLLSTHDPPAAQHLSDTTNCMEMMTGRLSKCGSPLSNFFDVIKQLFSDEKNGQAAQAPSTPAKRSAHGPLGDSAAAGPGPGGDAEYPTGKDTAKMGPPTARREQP

Test [4] concerns the target T2, panel of more than 300 wild-type and mutant kinases (313 kinase panel) (Homo sapiens, UniProt Q12852).
T2 sequence (Q12852 1-859): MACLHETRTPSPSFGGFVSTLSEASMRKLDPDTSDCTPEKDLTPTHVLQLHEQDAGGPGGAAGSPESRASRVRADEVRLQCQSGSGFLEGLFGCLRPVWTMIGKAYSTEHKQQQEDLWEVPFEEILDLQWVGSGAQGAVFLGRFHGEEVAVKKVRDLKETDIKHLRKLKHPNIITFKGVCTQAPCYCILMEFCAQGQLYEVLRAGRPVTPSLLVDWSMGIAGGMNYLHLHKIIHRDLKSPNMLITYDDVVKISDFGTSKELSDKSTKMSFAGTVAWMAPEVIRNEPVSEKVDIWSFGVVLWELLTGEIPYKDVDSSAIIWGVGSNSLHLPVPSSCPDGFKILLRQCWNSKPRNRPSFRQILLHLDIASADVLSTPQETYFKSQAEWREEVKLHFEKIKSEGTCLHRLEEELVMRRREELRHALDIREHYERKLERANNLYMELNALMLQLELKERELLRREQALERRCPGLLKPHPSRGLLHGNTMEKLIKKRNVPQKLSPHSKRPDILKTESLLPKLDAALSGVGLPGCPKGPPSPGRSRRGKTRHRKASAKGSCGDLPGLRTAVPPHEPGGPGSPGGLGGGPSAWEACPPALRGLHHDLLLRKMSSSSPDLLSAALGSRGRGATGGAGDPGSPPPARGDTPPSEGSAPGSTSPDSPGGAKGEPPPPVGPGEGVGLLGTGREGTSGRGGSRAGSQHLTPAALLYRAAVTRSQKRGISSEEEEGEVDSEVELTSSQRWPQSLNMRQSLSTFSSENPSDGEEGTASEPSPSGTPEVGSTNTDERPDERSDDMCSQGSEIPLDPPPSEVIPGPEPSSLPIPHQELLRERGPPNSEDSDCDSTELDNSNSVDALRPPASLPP

For test [5], the target named is panel of more than 300 wild-type and mutant kinases (313 kinase panel) (Homo sapiens, UniProt P31749).
panel of more than 300 wild-type and mutant kinases (313 kinase panel) (Homo sapiens, UniProt P31749), sequence (P31749 whole entry, change not shown): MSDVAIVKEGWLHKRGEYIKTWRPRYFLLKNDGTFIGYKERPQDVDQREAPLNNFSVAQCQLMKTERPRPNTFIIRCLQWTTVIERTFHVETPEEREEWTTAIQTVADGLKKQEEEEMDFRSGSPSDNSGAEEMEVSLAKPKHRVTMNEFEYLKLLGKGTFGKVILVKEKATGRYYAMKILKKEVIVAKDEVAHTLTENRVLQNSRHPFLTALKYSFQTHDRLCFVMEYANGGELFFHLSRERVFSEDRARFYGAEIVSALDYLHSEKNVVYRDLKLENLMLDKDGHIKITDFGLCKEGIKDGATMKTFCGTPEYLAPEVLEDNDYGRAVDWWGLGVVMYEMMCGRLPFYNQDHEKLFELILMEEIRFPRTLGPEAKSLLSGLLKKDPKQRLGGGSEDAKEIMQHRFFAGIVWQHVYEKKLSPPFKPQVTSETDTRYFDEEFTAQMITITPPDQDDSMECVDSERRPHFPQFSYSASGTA
The target of test [6] is panel of more than 300 wild-type and mutant kinases (313 kinase panel) (Homo sapiens, UniProt Q14680).
Test [7] has as its target T3, panel of more than 300 wild-type and mutant kinases (313 kinase panel) (Homo sapiens, UniProt O14965).
T3 sequence (O14965 1-403): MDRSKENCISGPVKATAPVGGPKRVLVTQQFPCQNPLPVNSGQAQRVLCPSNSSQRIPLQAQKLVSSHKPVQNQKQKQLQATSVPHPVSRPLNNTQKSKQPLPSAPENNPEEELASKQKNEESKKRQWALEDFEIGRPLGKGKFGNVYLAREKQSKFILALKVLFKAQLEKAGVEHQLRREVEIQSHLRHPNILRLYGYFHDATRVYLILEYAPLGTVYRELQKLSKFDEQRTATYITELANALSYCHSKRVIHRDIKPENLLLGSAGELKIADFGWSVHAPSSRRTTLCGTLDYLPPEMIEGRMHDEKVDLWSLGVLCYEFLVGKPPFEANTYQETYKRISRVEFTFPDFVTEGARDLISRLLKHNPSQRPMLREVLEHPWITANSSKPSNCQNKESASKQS

The mark [8] stands for this setting: kinase AurA/TPX2, 1 μM compound.

The values that follow come from article PMC3961306, “Comparison of the Cancer Gene Targeting and Biochemical Selectivities of All Targeted Kinase Inhibitors Approved for Clinical Use” (PLoS ONE, 2014).

panel of more than 300 wild-type and mutant kinases (313 kinase panel) (Homo sapiens, UniProt Q9BUB5), sequence (Q9BUB5 whole entry, change not shown): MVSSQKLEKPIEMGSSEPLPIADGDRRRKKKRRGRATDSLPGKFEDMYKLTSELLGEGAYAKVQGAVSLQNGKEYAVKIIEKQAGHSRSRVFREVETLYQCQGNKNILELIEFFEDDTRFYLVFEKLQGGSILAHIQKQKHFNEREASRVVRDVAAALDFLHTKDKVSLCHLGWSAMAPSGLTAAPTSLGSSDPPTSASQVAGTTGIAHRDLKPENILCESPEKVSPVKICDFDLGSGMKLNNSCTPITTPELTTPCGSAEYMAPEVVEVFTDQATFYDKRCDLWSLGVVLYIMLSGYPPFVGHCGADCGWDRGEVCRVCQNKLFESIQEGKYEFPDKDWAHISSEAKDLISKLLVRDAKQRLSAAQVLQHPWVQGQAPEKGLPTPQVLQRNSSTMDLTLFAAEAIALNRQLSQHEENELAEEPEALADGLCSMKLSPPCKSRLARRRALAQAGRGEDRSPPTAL

Consider `COc1cc(Nc2c(C#N)cnc3cc(OCCCN4CCN(C)CC4)c(OC)cc23)c(Cl)cc1Cl` [bosutinib], for which the “%-inhibition, CK1γ2” value in test [1] (kinase CK1γ2, 1 μM compound) is -2.3%. Also, the “%-inhibition of MNK1” value in test [2] (kinase MNK1, 1 μM) was -4.37%. Moreover, in test [3] (kinase BRSK2, 1 μM compound), the “%-inhibition, BRSK2” value is reported as -12%. In addition, the “%-inhibition of DLK” value in test [4] (kinase DLK, compound at 1 μM) is listed as 77%. In addition, the “%-inhibition, AKT1” value in test [5] (1 µM) is on record as -5.47%.
Take `COc1cc2nccc(Oc3ccc(NC(=O)C4(C(=O)Nc5ccc(F)cc5)CC4)cc3)c2cc1OC` [cabozantinib]: the “%-inhibition, CK1γ2” value in test [1] (kinase CK1γ2, 1 μM compound) is listed as 0.731%. In addition, the “%-inhibition of MNK1” value in test [2] (kinase MNK1, 1 μM) is listed as 11%. Besides, the “%-inhibition of MELK” value in test [6] (kinase MELK, compound at 1 μM) was found to be 54%. For the same compound, the “%-inhibition, BRSK2” value in test [3] (kinase BRSK2, 1 μM compound) turned out to be 5.62%. Besides, the “%-inhibition of DLK” value in test [4] (kinase DLK, compound at 1 μM) stood at 36%. Also, in test [7] (setting [8]), the “%-inhibition, AurA/TPX2” value came to 29%. The “%-inhibition, AurA” value in test [7] (kinase AurA, 1 μM compound) was 54%. In test [5] (kinase AKT1, 1 μM compound), the “%-inhibition, AKT1” value is listed as -4.52%.
As for `C[C@@H](Oc1cc(-c2cnn(C3CCNCC3)c2)cnc1N)c1c(Cl)ccc(F)c1Cl` [crizotinib], the “%-inhibition of MNK1” value in test [2] (kinase MNK1, 1 μM) was determined as 0%. Further, the “%-inhibition of MELK” value in test [6] (kinase MELK, compound at 1 μM) came out at 5.47%. Besides, the “%-inhibition, BRSK2” value in test [3] (kinase BRSK2, 1 μM compound) is 8%. In test [4] (kinase DLK, compound at 1 μM), the “%-inhibition of DLK” value is listed as 86%. The “%-inhibition, AKT1” value in test [5] (kinase AKT1, 1 μM compound) was -7%.
For `CC(C)(C)c1nc(-c2cccc(NS(=O)(=O)c3c(F)cccc3F)c2F)c(-c2ccnc(N)n2)s1` [dabrafenib], the “%-inhibition of MNK1” value in test [2] (kinase MNK1, 1 μM) is 20%. The “%-inhibition of MELK” value in test [6] (kinase MELK, compound at 1 μM) came to 82%. The “%-inhibition, BRSK2” value in test [3] (kinase BRSK2, 1 μM compound) stood at 30%. In addition, in test [4] (kinase DLK, compound at 1 μM), the “%-inhibition of DLK” value is -10%.
Consider `Cc1nc(Nc2ncc(C(=O)Nc3c(C)cccc3Cl)s2)cc(N2CCN(CCO)CC2)n1` [dasatinib], for which, in test [1] (kinase CK1γ2, 1 μM compound), the “%-inhibition, CK1γ2” value was found to be 20%. Besides, the “%-inhibition of DLK” value in test [4] (kinase DLK, compound at 1 μM) was determined as 20%. Moreover, the “%-inhibition, AurA/TPX2” value in test [7] (setting [8]) is on record as 22%.
As to `C#Cc1cccc(Nc2ncnc3cc(OCCOC)c(OCCOC)cc23)c1` [erlotinib], in test [1] (1 µM), the “%-inhibition, CK1γ2” value stood at 8%. The “%-inhibition of MNK1” value in test [2] (1 µM) is 74%. The “%-inhibition of MELK” value in test [6] (1 µM) worked out at 2.69%. Further, the “%-inhibition, BRSK2” value in test [3] (1 µM) worked out at 3.75%. For the same compound, in test [4] (1 µM), the “%-inhibition of DLK” value is recorded as -1.89%. Further, in test [7] (1 µM), the “%-inhibition, AurA” value is reported as 29% and the “%-inhibition, AurA/TPX2” value was found to be 1.46%. Further, the “%-inhibition, AKT1” value in test [5] (1 µM) worked out at 12%.
As for `Cc1ccc(Nc2nccc(N(C)c3ccc4c(C)n(C)nc4c3)n2)cc1S(N)(=O)=O` [pazopanib], the “%-inhibition, CK1γ2” value in test [1] (kinase CK1γ2, 1 μM compound) was -0.747%. For the same compound, the “%-inhibition of MNK1” value in test [2] (kinase MNK1, 1 μM) is -2%. Besides, the “%-inhibition of MELK” value in test [6] (kinase MELK, compound at 1 μM) is recorded as -0.665%. Also, the “%-inhibition, BRSK2” value in test [3] (kinase BRSK2, 1 μM compound) was -2.18%. Moreover, in test [4] (kinase DLK, compound at 1 μM), the “%-inhibition of DLK” value is given as 40%. For the same compound, the “%-inhibition, AKT1” value in test [5] (kinase AKT1, 1 μM compound) is reported as -2%.
As to `Cc1ccc(C(=O)Nc2ccc(CN3CCN(C)CC3)c(C(F)(F)F)c2)cc1C#Cc1cnc2cccnn12` [ponatinib], the “%-inhibition, CK1γ2” value in test [1] (kinase CK1γ2, 1 μM compound) is 0.169%. In addition, in test [2] (kinase MNK1, 1 μM), the “%-inhibition of MNK1” value was found to be 30%. The “%-inhibition, BRSK2” value in test [3] (kinase BRSK2, 1 μM compound) is reported as -11%. The “%-inhibition of DLK” value in test [4] (kinase DLK, compound at 1 μM) is on record as 84%. For the same compound, the “%-inhibition, AurA/TPX2” value in test [7] (setting [8]) is on record as -3.42%. For the same compound, the “%-inhibition, AurA” value in test [7] (kinase AurA, 1 μM compound) amounted to 9%.
With `CCN(CC)CCNC(=O)c1c(C)[nH]c(/C=C2\C(=O)Nc3ccc(F)cc32)c1C` [sunitinib], in test [6] (kinase MELK, compound at 1 μM), the “%-inhibition of MELK” value is reported as 95%. Moreover, the “%-inhibition, AurA/TPX2” value in test [7] (setting [8]) was found to be 72%. In test [7] (kinase AurA, 1 μM compound), the “%-inhibition, AurA” value came out at 81%.
For the compound `COc1cc2c(Nc3ccc(Br)cc3F)ncnc2cc1OCC1CCN(C)CC1` [vandetanib], in test [1] (kinase CK1γ2, 1 μM compound), the “%-inhibition, CK1γ2” value is reported as -2%. In addition, the “%-inhibition of MNK1” value in test [2] (kinase MNK1, 1 μM) was determined as 91%. Also, the “%-inhibition of MELK” value in test [6] (kinase MELK, compound at 1 μM) amounted to 1.19%. For the same compound, the “%-inhibition, BRSK2” value in test [3] (kinase BRSK2, 1 μM compound) was -10%. In addition, the “%-inhibition of DLK” value in test [4] (kinase DLK, compound at 1 μM) is 20%. The “%-inhibition, AKT1” value in test [5] (1 µM) is recorded as -4.52%.
